Data published in patent US10343991B2, “C5, C6 substituted and/or fused oxindoles as anti-cancer agents and process for preparation thereof” (Council of Scientific & Industrial Research, priority 2016, dated 2019).

Key:
[1] = tested on: THP1 cells; assay: Trypan blue assay, cell viability; type: cell-based; conditions: Homo sapiens, THP-1, 48 h, average of three experiments
Experimental: (§1) In order to determine the anticancer potency, the synthesized oxindole derivatives were evaluated for anti-cancer activity various different human cancer cell lines, Leukemic Cancer (THP1), human breast cancer (MDA-MB-231 and MCF-7), human cervix carcinoma cells (HeLa), prostate cancer (DU-145) cellS by using standard Trypan blue and SRB assays. The preliminary anticancer activity for all the synthesized compounds was done at 10 μM concentration and cell inhibition was determined. […] The experiment was repeated thrice and the average values were taken.
The assay was carried out in a 24 well flat-bottomed microtiter tissue culture plate. THP1 cells were seeded in the plates with a density of 4×10^4 cells/well (counted by tryphan blue exclusion dye method). Compounds were added to obtain a concentration of 10 μM. Sunitinib was used as positive control. Plates were incubated for 48 h at 37° C. in a humidified incubator with 5% CO2. At the end of the treatments, cells (THP1) were resuspended in 0.4% trypan blue and percent cell viability was counted using countess cell chamber (Life Technologies).

[2] = tested on: DU-145 cells; assay: SRB assay, cell viability; type: cell-based; conditions: Homo sapiens, 48 h, average of three experiments, read-out: DU145 Cell Viability at 10 μM
Experimental: as §1
(§2) The assay was carried out in a 24 well flat-bottomed microtiter tissue culture plate. Cells were seeded in the plates with a density of 4×10^4 cells/well (counted by tryphan blue exclusion dye method). After 24 hours media was replaced with fresh media and then compounds were added to obtain a concentrations of 10 μM. Sunitinib was used as positive control. Plates were incubated for 48 h at 37° C. in a humidified incubator with 5% CO2. After 48 hours without removing the cell culture supernatant, 500 μl of cold 10% (wt/vol) TCA was added to each well, and the plates were incubated at 4° C. for 1 h. The plates were washed for four times with water then rinsed with water several times to remove TCA, serum, proteins and excess water was removed using paper towels and air dried. 100 μl of 0.4% (wt/vol in 1% acetic acid) SRB solution was added to each well. Plates were left at room temperature for 30 min and then the plates were quickly rinsed for four times with 1% (vol/vol) acetic acid to remove unbound dye were and then air dried until no moisture was visible. 100 μl of 10 mM Tris base solution (pH 10.5) was added to each well and shake for 5 min to solubilize the protein-bound dye. Optical density was measured at 564 nm in a micro plate reader.

[3] = tested on: HeLa cells; assay: SRB assay, cell viability; type: cell-based; conditions: Homo sapiens, 48 h, average of three experiments
Experimental: as §1, §2

[4] = tested on: MCF-7 cells; assay: SRB assay, cell viability; type: cell-based; conditions: Homo sapiens, MCF7, 48 h, average of three experiments
Experimental: as §1, §2

[5] = tested on: MDA-MB-231 cells; assay: SRB assay, cell viability; type: cell-based; conditions: Homo sapiens, 48 h, average of three experiments
Experimental: as §1, §2

[6] = tested on: THP1 cells; type: cell-based, human; conditions: THP-1 cells, 10 μM, 24 h; untreated cells 68.3%
Experimental: To understand the anticancer activity mechanism of the synthesized oxindole derivatives, we analysed the cell cycle alteration phase distribution of the cells by treating THP1 cells with oxindole derivatives at 10 μM, for 24 h and analyzed by flow cytometry. Treatment of THP-1 cells with compounds 2b, 3d, 3e, 3g, 3h, 3i, 3j and 3k caused an accumulation of 98.5%, 94.3%, 96.7%, 97%, 98%, 83%, 93.5%, 98.1% cells in the G0/G1 phase respectively as compared to 68.3% in untreated cells and 99.5% in Sunitinib treated cells. […] (Fig. x and Table .y).
The THP1 cells were treated with the active compounds at […] and incubated for about 24 h. The cells were fixed in ice cold ethanol solvent at 4° C. for about 30 minutes. The ethanol was removed and cells were treated with 1 mL of DNA staining solution (2 mg of RNase and 0.2 mg of propidium iodide (PI)) for 30 minutes. The DNA content was measured by flow cytometry (BD FACS C anto II). Results were analysed using FCS express 4 plus software.

[7] = tested on: VEGF tyrosin kinase (VEGFR); assay: VEGFR activity, phosphotyrosine (PY) cell-based ELISA; conditions: 10 μM, 60 min pretreatment, VEGF stimulation
Experimental: Briefly, cells at 60-75% confluence were placed in serum-free medium for 18 h to reduce the background of phosphorylation. Cells were then pretreated for 60 min with 2b, 3d, 3e, 3g, 3h, 3i, 3j and 3k compounds at 10 μM concentration followed by an optimized dose of purified growth factor (VEGF). The reaction was stopped, and cells were permeabilized by quickly removing the media from the cells and adding ice-cold Tris-buffered saline (TBS) containing 0.05% triton X-100, protease inhibitor cocktail, and tyrosine phosphatase inhibitor cocktail (both from Sigma Chemical). The TBS solution was then removed, and cells were fixed to the plate by heat and further incubation in 70% ethanol. Cells were further exposed to block (TBS with 1% BSA) and washed, and then a horseradish peroxidase (HRP)-conjugated phosphotyrosine antibody was added. The antibody was removed; cells were washed again and exposed to an enhanced luminol ELISA substrate, and light emission was measured using a plate reader. The known RTK-specific kinase inhibitor (Sunitinib) was used as positive control for kinase inhibition.

Row | Compound | viability at 10 µM [1] [%] | viability at 10 µM [2] [%] | viability at 10 µM [3] [%] | viability at 10 µM [4] [%] | viability at 10 µM [5] [%] | accumulation of cells in the G0/G1 phase [6] [%] | inhibitory activity of VEGF tyrosin kinase activity [7] | melting point [°C]
1 | Cc1cc(C)c(/C=C2\C(=O)Nc3cc4oc(Cc5ccccc5)c(-c5ccccc5)c4cc32)[nH]1 [Compound 3h, (Z)-2-benzyl-5-((3,5-dimethyl-1H-pyrrol-2-yl)methylene)-3-phenyl-5H-furo[3,2-f]indol-6(7H)-one] | 36.2 | 58.6 | 40.3 | 40.5 | 41.3 | 98 | inhibitory activity | 186 to 188
2 | O=C1Cc2cc(C(C#Cc3ccccc3)c3ccccc3)c(O)cc2N1 (stereo not shown) [Compound 2a, 5-(1,3-Diphenylprop-2-yn-1-yl)-6-hydroxyindolin-2-one] | 34.5 | 41.7 | 36.6 | 39.7 | 71.3 | – | – | 195 to 196
3 | Cc1ccc(S(=O)(=O)n2cc(C(C#Cc3ccccc3)c3cc4c(cc3O)NC(=O)/C4=C\c3[nH]c(C)cc3C)c3ccccc32)cc1 (stereo not shown) [Compound 3g, (Z)-3-((3,5-dimethyl-1H-pyrrol-2-yl)methylene)-6-hydroxy-5-(3-phenyl-1-(1-tosyl-1H-indol-3-yl)prop-2-yn-1-yl)indolin-2-one] | 104 | 94.3 | 88.3 | 91.5 | 63.8 | 97 | inhibitory activity | 185 to 186
4 | CN(C)c1ccc(/C=C2\C(=O)Nc3cc4oc(Cc5ccccc5)c(-c5ccccc5)c4cc32)c2ccccc12 [Compound 3j, (Z)-2-benzyl-5-((4-(dimethylamino)naphthalen-1-yl)methylene)-3-phenyl-5H-furo[3,2-f]indol-6(7H)-one] | 83.3 | 45.2 | 107 | 37.8 | 71.3 | 93.5 | inhibitory activity | 241 to 245
5 | Cc1ccsc1/C=C1\C(=O)Nc2cc(O)c(C(C#Cc3ccccc3)c3ccccc3)cc21 (stereo not shown) [Compound 3d, (Z)-5-(1,3-diphenylprop-2-yn-1-yl)-6-hydroxy-3-((3-methylthiophen-2-yl)methylene)indolin-2-one] | 33.3 | 45.5 | 71.3 | 30.7 | 35.9 | 94.3 | inhibitory activity | 182 to 185
6 | COc1cccc(-c2c(CCOCc3ccccc3)oc3cc4c(cc23)CC(=O)N4)c1OC [Compound 3b, 2-(2-(Benzyloxy)ethyl)-3-(2,3-dimethoxyphenyl)-5H-furo [3,2-f] indol-6(7H)-one] | 75.5 | 69.2 | 40.5 | 49.3 | 72.5 | – | – | 120 to 122
7 | CCN(CC)CCNC(=O)c1c(C)[nH]c(/C=C2\C(=O)Nc3ccc(F)cc32)c1C [SUNT, Sunitinib, reference compound] | 35.2 | 35 | 37.1 | 34.3 | 39.5 | 99.5 | – | –
8 | Cc1ccsc1/C=C1\C(=O)Nc2cc3oc(Cc4ccccc4)c(-c4ccccc4)c3cc21 [Compound 3i, (Z)-2-benzyl-5-((3-methylthiophen-2-yl)methylene)-3-phenyl-5H-furo[3,2-f]indol-6(7H)-one] | 41.2 | 52 | 42.6 | 31.4 | 43.2 | 83 | inhibitory activity | 165 to 168
9 | COc1cccc(-c2c(COCc3ccccc3)oc3cc4c(cc23)/C(=C/c2[nH]c(C)cc2C)C(=O)N4)c1OC [Compound 3k, (Z)-2-((benzyloxy)methyl)-3-(2,3-dimethoxyphenyl)-5-((3,5-dimethyl-1H-pyrrol-2-yl)methylene)-5H-furo[3,2-f]indol-6(7H)-one] | 80.5 | 62.7 | 38.9 | 43.1 | 109 | 98.1 | inhibitory activity | –
10 | Cc1cc(C)c(/C=C2\C(=O)Nc3cc(O)c(C(C#Cc4ccccc4)c4ccccc4)cc32)[nH]1 (stereo not shown) [Compound 3c, (Z)-3-((3,5-dimethyl-1H-pyrrol-2-yl)methylene)-5-(1,3-diphenylprop-2-yn-1-yl)-6-hydroxyindolin-2-one] | 125 | 81.3 | 78.2 | 49.9 | 74.5 | – | – | 173 to 179
11 | Cc1ccc(S(=O)(=O)n2cc(-c3c(Cc4ccccc4)oc4cc5c(cc34)/C(=C/c3[nH]c(C)cc3C)C(=O)N5)c3ccccc32)cc1 [Compound 3m, (Z)-2-benzyl-5-((3,5-dimethyl-1H-pyrrol-2-yl)methylene)-3-(1-tosyl-1H-indol-3-yl)-5H-furo[3,2-f]indol-6(7H)-one] | 68.2 | 91.7 | 87.6 | 71.4 | 75.5 | – | – | 174 to 176
12 | COc1cccc(C(C#CCOCc2ccccc2)c2cc3c(cc2O)NC(=O)/C3=C\c2[nH]c(C)cc2C)c1OC (stereo not shown) [Compound 3f] | 30.2 | 62.1 | 39.4 | 33.1 | 37.7 | – | – | 181 to 183
13 | COc1cccc(-c2c(COCc3ccccc3)oc3cc4c(cc23)/C(=C/c2sccc2C)C(=O)N4)c1OC [Compound 3l, (Z)-2-((benzyloxy)methyl)-3-(2,3-dimethoxyphenyl)-5-((3-methylthiophen-2-yl)methylene)-5H-furo[3,2-f]indol-6(7H)-one] | 106 | 49.7 | 52 | 79 | 111 | – | – | –
14 | O=C1Cc2cc3c(-c4ccccc4)c(Cc4ccccc4)oc3cc2N1 [Compound 3a, 2-Benzyl-3-phenyl-5H-furo[3,2-f]indol-6(7H)-one] | 53.6 | 21.7 | 27.6 | 51.1 | 53.8 | – | – | 196 to 198
